Results as given in patent US20210275498A1, “IMIDAZOLYL ETHANAMIDE PENTANDIOIC ACID FOR USE IN THERAPY OF SYMPTOMS RELATED TO EXPOSURE TO LETHAL RADIATION” (priority 2018, published 2021).

Assays:
[1] = tested on: C57BL/6 mice; test: Body weight after whole-body irradiation (response profile analysis); assay type: in vivo; parameters: key to Supporting variable: Body weight (trend): positive trend (descriptively) +; negative trend (descriptively) −; no difference (descriptively) 0
Protocol: Body weights were assessed twice during acclimation (including Day −3), once prior to irradiation (Day 0), and every 3 days thereafter. Terminal body weights were also collected, with the exception of Animal 4012.
The longitudinal data were analyzed taking into account the mean weight over time in each group and the covariance among the repeated measures by response profile analysis (Fitzmaurice et al., Wiley 2004, p 103-140.). The analysis was specified as a regression model with unstructured covariance to account for the correlation among repeated body weights of the same mouse and indicator variables for treatment groups and time, where the vehicle treatment was used as the reference group and Day 0 was taken as a reference for time.
The response profile analyses provide the following regression coefficients estimated by the restricted maximum likelihood (REML) method: intercept—mean body weight in the reference groups VL (POx1);2 and VH (POx1);8 at Day 0 treatment—difference between the mean body weight in the treatment groups and the vehicle groups at Day 0 time—body weight change from baseline in the reference groups treatment×time—treatment effect at each day estimated by comparison of change from baseline in the treatment groups and control groups For all regression coefficients, p-values and 95%-confidence intervals are provided. This method provides interpretable estimates, is valid if treatment groups differ at baseline, allows for arbitrary patterns in the mean body weight over time (no specific time trend e. g. linear curve assumed) and arbitrary patterns in the covariance. The analysis has certain robustness, as potential risks due to model misspecification are minimal.

[2] = tested on: C57BL/6 mice; test: Gross pathology and histopathology (testes degeneration, bone marrow cellularity) after whole-body irradiation; assay type: in vivo; parameters: key to Supporting variable: Bone marrow celluarity (trend) / Supporting variable: Testes degradation (trend): positive trend (descriptively) +; negative trend (descriptively) −; no difference (descriptively) 0
[3] = Day 30, Group 3 ML (IPx2): 25 mg/kg IP, Day −3 to 0 (6x), prophylactic, 5.8 Gy
[4] = Group 9 MH (POx1): 50 mg/kg per os SID Day 1, 2, 3, therapeutic, 6.0 Gy
[5] = Group 3 ML (IPx2): 25 mg/kg IP, Day −3 to 0 (6x), prophylactic, 5.8 Gy
[6] = Group 5 ML (POx1): 50 mg/kg per os SID Day −2, −1, 0, prophylactic, 5.8 Gy

O=C(O)CCCC(=O)NCCc1c[nH]cn1 [Myelo001, 5-{[2-(1H-imidazol-4-yl)ethyl]amino}-5-oxo-pentanoic acid]
Body weight: % Difference from Baseline (g) (difference to vehicle group 2 at Day 0) ([1]; Day 0, Group 5 ML (POx1): 50 mg/kg per os SID Day −2, −1, 0, prophylactic, 5.8 Gy): -0.3 g
Body weight: Estimate (g), change relative to vehicle Group 8 ([1]; Day 0, Group 9 MH (POx1): 50 mg/kg per os SID Day 1, 2, 3, therapeutic, 6.0 Gy): 0.0 g
Body weight: % Difference from Vehicle ([1]; Day 3, Group 3 ML (IPx2): 25 mg/kg IP, Day −3 to 0 (6x), prophylactic, 5.8 Gy): 0.6 g
Body weight: % Difference from Vehicle ([1]; Day 3, Group 4 ML (POx2): 25 mg/kg per os, Day −3 to 0 (6x), prophylactic, 5.8 Gy): 0.7 g
Body weight: % Difference from Vehicle ([1]; Day 3, Group 5 ML (POx1): 50 mg/kg per os SID Day −2, −1, 0, prophylactic, 5.8 Gy): 0.4 g
Body weight: Estimate (g), change relative to vehicle Group 8 ([1]; Day 3, Group 9 MH (POx1): 50 mg/kg per os SID Day 1, 2, 3, therapeutic, 6.0 Gy): 0.2 g
compensation of weight loss relative to vehicle Group 8 (amounts up to) ([1]; Day 3 to 30, Group 9 MH (POx1): 50 mg/kg per os SID Day 1, 2, 3, therapeutic, 6.0 Gy): up to 3.1 g
Body weight: % Difference from Vehicle ([1]; Day 9, Group 3 ML (IPx2): 25 mg/kg IP, Day −3 to 0 (6x), prophylactic, 5.8 Gy): 0.5 g
Body weight: % Difference from Vehicle ([1]; Day 9, Group 4 ML (POx2): 25 mg/kg per os, Day −3 to 0 (6x), prophylactic, 5.8 Gy): 0.6 g
Body weight: % Difference from Vehicle ([1]; Day 9, Group 5 ML (POx1): 50 mg/kg per os SID Day −2, −1, 0, prophylactic, 5.8 Gy): 0.4 g
Body weight: Estimate (g), change relative to vehicle Group 8 ([1]; Day 9, Group 9 MH (POx1): 50 mg/kg per os SID Day 1, 2, 3, therapeutic, 6.0 Gy): 0.4 g
Body weight: % Difference from Vehicle ([1]; Day 15, Group 3 ML (IPx2): 25 mg/kg IP, Day −3 to 0 (6x), prophylactic, 5.8 Gy): 0.1 g
Body weight: % Difference from Vehicle ([1]; Day 15, Group 4 ML (POx2): 25 mg/kg per os, Day −3 to 0 (6x), prophylactic, 5.8 Gy): -0.8 g
Body weight: % Difference from Vehicle ([1]; Day 15, Group 5 ML (POx1): 50 mg/kg per os SID Day −2, −1, 0, prophylactic, 5.8 Gy): -0.4 g
Body weight: Estimate (g), change relative to vehicle Group 8 ([1]; Day 15, Group 9 MH (POx1): 50 mg/kg per os SID Day 1, 2, 3, therapeutic, 6.0 Gy): 1.4 g
Body weight: % Difference from Vehicle ([1]; Day 21, Group 3 ML (IPx2): 25 mg/kg IP, Day −3 to 0 (6x), prophylactic, 5.8 Gy): 1.0 g
Body weight: % Difference from Vehicle ([1]; Day 21, Group 4 ML (POx2): 25 mg/kg per os, Day −3 to 0 (6x), prophylactic, 5.8 Gy): -0.7 g
Body weight: % Difference from Vehicle ([1]; Day 21, Group 5 ML (POx1): 50 mg/kg per os SID Day −2, −1, 0, prophylactic, 5.8 Gy): -0.1 g
Body weight: Estimate (g), change relative to vehicle Group 8 ([1]; Day 21, Group 9 MH (POx1): 50 mg/kg per os SID Day 1, 2, 3, therapeutic, 6.0 Gy): 3.1 g
Body weight: % Difference from Vehicle [1, 3]: 0.1 g
Body weight: % Difference from Vehicle ([1]; Day 30, Group 4 ML (POx2): 25 mg/kg per os, Day −3 to 0 (6x), prophylactic, 5.8 Gy): -1.1 g
Body weight: % Difference from Vehicle ([1]; Day 30, Group 5 ML (POx1): 50 mg/kg per os SID Day −2, −1, 0, prophylactic, 5.8 Gy): 0.1 g
Body weight: Estimate (g), change relative to vehicle Group 8 ([1]; Day 30, Group 9 MH (POx1): 50 mg/kg per os SID Day 1, 2, 3, therapeutic, 6.0 Gy): 2.6 g
Supporting variable: Body weight (trend) [1, 4]: +
testes degeneration, proportion by severity category ([2]; Day 14, n.s. (p=0.264), Group 9 MH (POx1): 50 mg/kg per os SID Day 1, 2, 3, therapeutic, 6.0 Gy): higher proportion of testes in minimal category
decreased cellularity of the bone marrow of both sternum and femur compared to vehicle-treated control Group 8 ([2]; Day 14 and 30 necropsies, Group 9 MH (POx1): 50 mg/kg per os SID Day 1, 2, 3, therapeutic, 6.0 Gy): lower severity of decreased cellularity
bone marrow cellularity decrease, category [2, 3]: minimal category
Supporting variable: Bone marrow celluarity (trend) [2, 5]: +
Supporting variable: Testes degradation (trend) [2, 5]: +
decrease of bone marrow cellularity ([2]; Group 4 ML (POx2): 25 mg/kg per os, Day −3 to 0 (6x), prophylactic, 5.8 Gy): did not show any significant changes
Supporting variable: Bone marrow celluarity (trend) [2, 6]: −
decrease of bone marrow cellularity [2, 6]: did not show any significant changes
Supporting variable: Bone marrow celluarity (trend) [2, 4]: +
organ weights data ([2]; all test article groups): no test article-related changes
